From patent EP3959200B1, “NEW TRIAZOLE AND TRIAZOLOTHIADIAZINE DERIVATIVES EXERTING CYTOTOXIC AND APOPTOTIC EFFECTS ON A549 CELLS THROUGH AKT INHIBITION” (Anadolu Universitesi, priority 2020, dated 2022)

Experiments:
[1] = system: breast adenocarcinoma (MCF-7); conditions: MCF-7, MTT; read-out: LC50 (the source's name); cited from earlier work
[2] = system: colon carcinoma (HCT116); conditions: HCT116, MTT; read-out: LC50 (the source's name); cited from earlier work
[3] = system: HCC rats; conditions: cited from earlier work
[4] = system: human HCC (HepG2) cell line; conditions: cited from earlier work
[5] = system: HCT116 cell line; conditions: cited from earlier work
[6] = system: PC-3 cell line; conditions: cited from earlier work
[7] = system: HeLa cell line; conditions: cited from earlier work
[8] = system: human colon epithelial cells (HT-29); conditions: cited from earlier work
[9] = system: lung cancer (H-157) cell line; conditions: cited from earlier work
[10] = system: human cervical carcinoma (HeLa); conditions: cited from earlier work
[11] = system: human breast cancer (MCF-7); conditions: cited from earlier work
[12] = system: kidney fibroblast (BHK-21) cells; conditions: cited from earlier work
[13] = system: tubulin; conditions: tubulin polymerization; cited from earlier work
[14] = system: ovarian carcinoma (SKOV3); conditions: cited from earlier work
[15] = system: breast adenocarcinoma (MCF-7); conditions: cited from earlier work
[16] = system: human lung adenocarcinoma (A549); conditions: cited from earlier work
[17] = system: human hepatocellular carcinoma (HCC) cell line (HepG2); conditions: HepG2, MTT; cited from earlier work
[18] = system: Ehrlich acid tumor (EAC); conditions: 25 mg/kg, body weight; cited from earlier work
[19] = system: human epithelial cervical carcinoma (HeLa) cells; conditions: MTT; cited from earlier work
[20] = system: lung cancer (H157) cells; conditions: cited from earlier work
[21] = system: A549 cells; experiment: FITC Annexin V/PI apoptosis detection by flow cytometry; format: cell-based, human; conditions: at IC50 concentrations
Procedure: The cells incubated with the compounds were centrifuged at 400 × g for 5 minutes in labeled tubes and washed twice with 1xPBS. Then, the cells were suspended in 1×Annexin-V binding solution at 1×10^6 cells/mL and 100 µL of this cell solution was taken and transferred to tubes. The cells were treated with 5 µL Annexin V FITC and 5 µL of propidium iodide (PI) dyes. Then, the cells were kept at room temperature in the dark for 15 minutes to allow the dye to bind. 400 µL of 1×Annexin-V binding cell solution was transferred to flow cytometry tubes and the amount of early and late apoptotic cells was determined relative to the positive control using the BD FACSAria flow cytometer FACSDiva version 6.1.1 software.

[22] = system: Akt; experiment: Akt activity assay (Akt colorimetric in cell ELISA); format: cell-based, human; conditions: 24 hours
Procedure: Briefly, the media was removed from the wells and 100 µL of 4% formaldehyde was added. The plate was incubated for 15 minutes in a fume hood. Formaldehyde was removed and the plate was washed twice with 1X […] solution (TBS) to 100 µL/well. 1X TBS was removed and 100 µL of 1X permeabilization buffer was added to each well and left at room temperature for 15 minutes. After removing the 1X permeabilization buffer, the wells were washed once with 100 µL of 1X TBS. 1X TBS was removed and 100 µL of the quenching solution was added to the wells and left at room temperature for 20 minutes. Then, this solution was removed. The plate was washed once with 1X TBS, 100 µL of blocking buffer was added to the wells and left at room temperature for 30 minutes. At the end of this period, the blocking buffer was removed and 50 µL of primary antibody was added to the wells. The plate was closed with a sealer and incubated overnight at 4°C. The primary antibody was removed and plate wells were washed three times with 100 µL of wash buffer. After removing the wash buffer, 100 µL of diluted horseradish peroxidase (HRP) conjugate was added to the wells. It was incubated for 30 minutes at room temperature. After removing this conjugate, 100 µL of 3,3',5,5'-tetramethylbenzidine (TMB) stop solution was added and absorbance was measured at 450 nm for 30 minutes. The experiment was carried out in triplicate. The values of the blank wells were subtracted from the values of the untreated control and treated cells. The Akt activity% was determined as the relative absorbance of treated versus untreated control cells.

[23] = system: K562 cell line; conditions: cited from earlier work
[24] = system: A549 human lung adenocarcinoma cells; experiment: MTT cytotoxicity assay; format: cell-based; conditions: MTT, 24 hours
Procedure: In order to be used from this stock, the concentrations ranging from 0.12 to 500 µg/mL (with the highest DMSO ratio of 0.1%) were prepared.
A549 human lung adenocarcinoma cells (ATCC® CCL-185™) were grown in RPMI 1640 medium supplemented with 10% fetal bovine serum, 1% penicillin/streptomycin, in an incubator with carbon dioxide, in a culture medium at 37°C at 95% relative humidity.
MTT protocol was applied to determine cell viability. […] At the end of the incubation period, 20 µL of MTT dye (5 mg/mL) was added into each well, and the cells were incubated for an additional 4 hours at 37°C. After this process, MTT dye was removed from the cells, 200 µL of DMSO was added to each well and left to incubate for 10 minutes. Color change was detected at 540 nm in the ELx808-IU Bio-Tek plate reader. Inhibition% values were determined for each concentration of compounds. Inhibitory concentration 50 (IC50) values of the compounds were calculated by drawing a dose-response curve with their concentrations against these values. All experiments were carried out in triplicate. The results were given as mean±standard deviation. Inhibition% = 100−[(ODtest compound−ODblank/ODsolvent control−ODblank)×100] [formula]
Selective index (SI) values were determined using the following formula. SI […] IC50 for NIH/3T3 cell line/IC50 for A549 cell line [formula]

[25] = system: human lung cancer (A549); conditions: cited from earlier work

## S=C(Nc1ccc(Oc2ccccc2)cc1)Nc1nc(-c2nnc(S)n2-c2ccc(Oc3ccccc3)cc2)cs1 [1-[4-(5-Mercapto-4-(4-phenoxyphenyl-4H-1,2,4-triazole-3-yl)thiazole-2-yl]-3-(4-phenoxyphenyl)thiourea]
[1]
  CC50: 17.4 µM
[2]
  CC50: 23.5 µM

## O=C(CNNc1nnc2n1NC=C(c1ccccc1)S2)c1ccccc1 [1-phenyl-2-(2-(7-phenyl-5H-[1,2,4]triazolo[3,4-b][1,3,4]thiadiazine-3-yl)hydrazinyl)ethanone]
[3]
  inhibition of hepatic tyrosine kinase (HTK) expression: 45%
  reduction of vascular endothelial growth factor (VEGF) level: 30%
[3]; compared to the HCC group
  improvement of liver level of glutathione (GSH): 99%
  improvement of liver level of lipid peroxides: 62%
[4]
  IC50: 19.6 µM

## COc1cc(-c2nnc(SCC(=O)c3ccc(C)cc3)n2N)cc(OC)c1OC [2-(4-amino-5-(3,4,5-trimethoxyphenyl)-4H-1,2,4-triazole-3-ylthio)-1-(p-tolyl)ethanone]
[5]
  IC50: 0.37 µM
[6]
  IC50: 31.3 µM
[7]
  IC50: 2.94 µM

## CS(=O)(=O)c1ccc(Cc2nnc3n2N=C(c2ccccc2)CS3)cc1 [3-(4-(methylsulfonyl)benzyl)-6-phenyl-7H-[1,2,4]triazolo[3,4-b][1,3,4]thiadiazine]
[8]
  IC50: 25 µM

## O=c1oc2ccccc2cc1-c1nnc2n1N=C(c1ccc(-c3ccccc3)cc1)CS2 [3-(6-(Biphenyl-4-yl)-7H-[1,2,4]triazolo[3,4-b][1,3,4]-thiadiazine-3-yl)-2H-chromen-2-one]
[9]
  IC50: 1.01 ± 0.12 µM

## COc1ccc(-n2nc(-c3nnc(SCCCO)n3-c3ccccc3)cc2-c2ccccc2)cc1 [3-((5-(1-(4-Methoxyphenyl)-5-phenyl-1H-pyrazole-3-yl)-4-phenyl-4H-1,2,4-triazole-3-yl)thio)propane-1-ol]
[10]
  IC50: 2.98 µM
[11]
  IC50: 2.72 µM

## Cc1ccc(C2=Nn3c(nnc3-c3ccncc3)SC2)cc1 [3-(pyridine-4-yl)-6-(p-tolyl)-7H-[1,2,4]triazolo[3,4-b][1,3,4]thiadiazine]
[12]
  inhibition: 72.6%

## COc1cc(C2=Nn3c(nnc3-c3ccccc3)SC2)cc(OC)c1OC [3-phenyl-6-(3,4,5-trimethoxyphenyl)-7H-[1,2,4]triazolo[3,4-b][1,3,4]thiadiazine]
[13]
  IC50: 1.61 µM
[14]
  IC50: 4.63 ± 0.09 µM
[15]
  IC50: 0.7 ± 0.04 µM
[16]
  IC50: 3.71 ± 0.13 µM

## S=c1[nH]nc(OCc2ccccc2)n1N=Cc1c[nH]nc1-c1ccc(Cl)cc1 [4-((3-(4-chlorophenyl)-1H-pyrazole-4-methylene)amino)-5-(benzyloxy)-2,4-dihydro-1,2,4-triazole-3-thione]
[17]
  IC50: 0.018 µM

## Cc1ccc(COc2nn(CN3CCOCC3)c(=S)n2N=Cc2c[nH]nc2-c2ccc(F)cc2)cc1 [4-((3-(4-fluorophenyl)-1H-pyrazole-4-methylene)amino)-2-(morpholinomethyl)-5-(4-methylbenzyloxy)-2,4-dihydro-1,2,4-triazole-3-thione]
[17]
  IC50: 0.034 µM

## Nn1c(S)nnc1-c1ccccc1Cl [4-amino-5-mercapto-3-(2-chlorophenyl)-1,2,4-triazole]
[18]
  tumor cell inhibition (TCI): 63.59%

## CS(=O)(=O)c1ccc(Cc2n[nH]c(=S)n2N=Cc2c(F)cccc2Cl)cc1 [4-{ [(2-chloro-6-fluorophenyl)methylene]amino}-5-[4-(methylsulfonyl)benzyl]-2,4-dihydro-3H-1,2,4-triazole-3-thione]
[19]
  EC50: 25 µM

## O=c1[nH]cc(F)c(=O)[nH]1 [5-fluorouracil]
[5]
  IC50: 68.7 µM
[6]
  IC50: 57 µM
[7]
  IC50: 57.2 µM

## Clc1ccc(C2=Nn3c(nnc3-c3cccnc3)SC2)cc1Cl [6-(3,4-dichlorophenyl)-3-(pyridine-3-yl)-7H-[1,2,4]triazolo[3,4-b][1,3,4]thiadiazine]
[20]
  IC50: 0.96 ± 0.43 µM

## COc1cccc(C2=Nn3c(nnc3-c3ccncc3)SC2)c1 [6-(3-methoxyphenyl)-3-(pyridine-4-yl)-7H-[1,2,4]triazolo[3,4-b][1,3,4]thiadiazine]
[12]
  inhibition: 73.3%

## COc1cc(-c2nnc3n2N=C(c2ccc(Br)cc2)CS3)cc(OC)c1OC [6-(4-bromophenyl)-3-(3,4,5-trimethoxyphenyl)-7H-[1,2,4]triazolo[3,4-b][1,3,4]thiadiazine]
[13]
  IC50: 1.03 µM
[14]
  IC50: 0.3 ± 0.65 µM
[15]
  IC50: 3.34 ± 0.02 µM
[16]
  IC50: 3.15 ± 0.01 µM

## CS(=O)(=O)c1ccc(Cc2nnc3n2N=C(c2ccc(-c4ccccc4)cc2)CS3)cc1 [6-(biphenyl-4-yl)-3-(4-(methylsulfonyl)benzyl)-7H-[1,2,4]triazolo[3,4-b][1,3,4]thiadiazine]
[8]
  IC50: 12.5 µM

## COc1cc(-c2nnc3n2N=C(c2ccc(C)cc2)CS3)cc(OC)c1OC [6-(p-tolyl)-3-(3,4,5-trimethoxyphenyl)-7H-[1,2,4]triazolo[3,4-b][1,3,4]thiadiazine]
[14]
  IC50: 3.43 ± 0.33 µM
[15]
  IC50: 2.75 ± 0.05 µM
[16]
  IC50: 0.6 ± 0.02 µM

## N.N.[Cl][Pt][Cl] [Cisplatin, reference compound]
[21]
  Early apoptotic cells %: 1.8%
  Late apoptotic cells %: 5.8%
  Necrosis %: 7.0%
[21]; early plus late apoptotic cells
  apoptotic activity: 7.6%
[22]; 5.75 µg/mL
  Inhibition %: 40.70±1.62%
[22]; 11.50 µg/mL
  Inhibition %: 97.89±0.86%
[22]
  IC50 value (Akt inhibitory effects): 7.00 ± 0.50 µg/mL
[23]
  IC50: 5.45 ± 0.18 µM
[9]
  IC50: 1.31 ± 0.03 µM
[24]
  IC50 values A549 cell line: 11.50 ± 0.71 µg/mL

## COc1cccc2c1C(=O)c1c(O)c3c(c(O)c1C2=O)C[C@@](O)(C(=O)CO)C[C@@H]3O[C@H]1C[C@H](N)[C@H](O)[C@H](C)O1 [doxorubicin]
[25]
  IC50: 4.52 µM
[1]
  CC50: 26.1 µM
[4]
  IC50: 36.3 µM
[19]
  EC50: 2.5 µM
[10]
  IC50: 8.72 µM
[2]
  CC50: 37.7 µM

## COc1cc([C@@H]2c3cc4c(cc3[C@@H](O[C@@H]3O[C@@H]5CO[C@@H](C)O[C@H]5[C@H](O)[C@H]3O)[C@H]3COC(=O)[C@H]23)OCO4)cc(OC)c1O [etoposide]
[14]
  IC50: 2.3 ± 0.12 µM
[15]
  IC50: 1.89 ± 0.16 µM
[16]
  IC50: 2.99 ± 0.22 µM

## CC[C@]1(O)C[C@H]2CN(CCc3c([nH]c4ccccc34)[C@@](C(=O)OC)(c3cc4c(cc3OC)N(C=O)[C@H]3[C@@](O)(C(=O)OC)[C@H](OC(C)=O)[C@]5(CC)C=CCN6CC[C@]43[C@@H]65)C2)C1 [vincristine]
[9]
  IC50: 1.03 ± 0.04 µM
[20]
  IC50: 1.03 ± 0.04 µM
[12]
  inhibition: 74.5%
